Measured values as given in patent US20130338129A1, “METHOD OF TREATING REFRACTORY CANCER” (Niiki Pharma Inc., priority 2010, published 2013).
Read-outs that look alike come from different tables or passages of the source. Blank lines part the entries; values can stand above or below the compound they belong to.

How the values were obtained:
[1] = tested on: Human malignant melanoma cell line G361; experiment: MTT Cell Proliferation Assay, G361 cells; conditions: read-out: IC50 (concentration of agent that inhibits cell growth by 50%)
Procedure: (§1) Human lung carcinoma cell line A549 plates were seeded with 2,500 cells/well, and the cells were grown in Ham's F12 medium containing 10% FBS and 1% penicillin/strep/glutamine. Cultures were maintained in a 37° C. humidified 5% CO2/95% air atmosphere. Stock cultures were allowed to grow to 70-80% confluence for this study. […] 1000 μl of medium was removed from each well at 72 hours post-treatment and 10 μl MTT reagent was added to each well. The plates were incubated at 37° C. for 4 hours and then 100 μl of detergent was added. The plates were left overnight at room temperature in the dark and was read on a plate reader using SoftMax® Pro (version 5.2, Molecular Devices).
The absorbance data was analyzed as follows: Absorbance values were converted to Percent of Control and plotted against test agent concentrations for IC50 calculations using SoftMax® Pro (version 5.2, Molecular Devices). The plate blank signal average was subtracted from all wells prior to calculating the Percent of Control. Percent of Control values were calculated by dividing the absorbance values for each test well by the No Drug Control average (column 11 values; cells+vehicle control) and multiplying by 100. Plots of Compound Concentration versus Percent of Control were analyzed using the 4-parameter equation to obtain IC50 values and other parameters that describe the sigmoidal dose response curve. […]

A549 cells = conditions: Denlinger et al. 2004; cited from earlier work
[2] = tested on: human lung carcinoma cell line H1975; conditions: T790M mutation in the EGFR gene; Bao et al. 2009; cited from earlier work
[3] = tested on: human lung carcinoma cell line H1975; experiment: MTT Cell Proliferation Assay, H1975 cells; type: cell-based
Procedure: (“Test Drug”) was 41 μM (FIG. 1).
Table 2 below summarizes the activities on the two compounds in the different lung cancer cell lines tested.

[4] = tested on: colorectal adenocarcinoma; experiment: Human clinical trial (UK), refractory colorectal cancer patient; type: in vivo; conditions: person, colorectal adenocarcinoma failed oxaliplatin, capecitibine, cetuximab, irinotecan, panitumumab; 500 mg/m^2 i.v. daily days 1-4 of 21-day cycle, 4 cycles
Description: The trial enrolled a person with colorectal adenocarcinoma, adenocystic histology, incompletely resected in September 2007. Their initial therapy consisted of oxaliplatin, capecitibine and cetuximab between October 2007 and February 2009 with best response of progressive disease. […] They then were changed to irinotecan and panitumumab, administered between April 2009 and October 2009, again with best response progressive disease.

[5] = tested on: Human lung carcinoma cell line A549; experiment: MTT Cell Proliferation Assay, A549 cells; type: cell-based; conditions: for IC50: A549 cells, MTT, 72 hours post-treatment; for IC50 Ratio (A549/H1975): ratio of IC50 in A549 to IC50 in H1975
Procedure: as §1
The absorbance data was analyzed as follows: Absorbance values were converted to Percent of Control and plotted against test agent concentrations for IC50 calculations using SoftMax® Pro (version 5.2, Molecular Devices). The plate blank signal average was subtracted from all wells prior to calculating the Percent of Control. Percent of Control values were calculated by dividing the absorbance values for each test well by the No Drug Control average (column 11 values; cells+vehicle control) and multiplying by 100. Plots of Compound Concentration versus Percent of Control were analyzed using the 4-parameter equation to obtain IC50 values and other parameters that describe the sigmoidal dose response curve.
The IC50 values for the test agents were estimated by curve-fitting the data using the following four parameter-logistic equation:
wherein “Top” is the maximal % of control absorbance (100%), “Bottom” is the minimal % of control absorbance at the highest agent concentration (down to zero), Y is the Percent of Control absorbance, X is the test agent Concentration, IC50 is the concentration of agent that inhibits cell growth by 50% compared to the control cells, n is the slope of the curve.

[6] = tested on: Non-Small Cell Lung Cancer; experiment: Human clinical trial (US), refractory lung cancer patients; type: in vivo; conditions: 320 mg/m^2 i.v. day 1, 8, 15 of 28-day cycle, 4 cycles
Procedure: Patient No. 04-005 was a person with Stage IV Non-Small Cell Lung Cancer, moderately differentiated adenocarcinoma histology, diagnosed in April 2006. […] Combination chemotherapy with docetaxel, carboplatin and bevacizumab was administered between September and December 2006, with which the patient achieved a complete response. The patient suffered a disease recurrence and was started on sorafenib in April 2008. Sorafenib was discontinued in May 2008 due to disease progression. […] Between November 2009 and January 2010, the patient received gemcitibine.
Patient No. 04-011 was a person with Stage IIIB Non-Small Cell Lung Cancer, poorly differentiated adenocarcinoma histology, diagnosed in January 2005. Initial therapy consisted of carboplatin, gemcitibine and zoledronic acid from January 2005 through August 2005, with a partial response. […] In December 2005, chest radiotherapy with 54 Gy, with paclitaxel radiosensitization, was initiated and completed by February 2006. Through the remainder of 2006, the patient received a course of single agent erlotinib and a course of single agent pemetrexed; best response to these therapies is unknown. In January 2007, combination therapy with gemcitibine and navelbine was initiated, but their best response was disease progression. Experimental therapy with PTK787 (vatalanib) and imatinib was initiated in February 2007. […]

IC50 ([1]; Homo sapiens, G-361, 72 h): 199 µM
Structure (SMILES): Cn1nnc2c(C(N)=O)ncn2c1=O [temozolomide]

Structure (SMILES): Nc1ccn([C@@H]2O[C@H](CO)[C@@H](O)C2(F)F)c(=O)n1 [gemcitabine]
sensitivity of A549 cells (A549 cells): inherently resistant

Structure (SMILES): C#Cc1cccc(Nc2ncnc3cc(OCCOC)c(OCCOC)cc23)c1 [erlotinib]
sensitivity of H1975 cells [2]: resistant

Structure (SMILES): COc1cc2ncnc(Nc3ccc(F)c(Cl)c3)c2cc1OCCCN1CCOCC1 [gefitinib]
sensitivity of H1975 cells [2]: resistant

Structure (SMILES): [Cl][Ru-]([Cl])([Cl])[Cl].[Na+].c1ccc2[nH]ncc2c1.c1ccc2[nH]ncc2c1
IC50 ([3]; 72 hours post-treatment): 33.6 µM
best response [4]: stable disease
IC50 [5]: 9.9 µM
IC50 Ratio (A549/H1975) [5]: 0.29
best response ([6]; Patient No. 04-005, Stage IV NSCLC): stable disease
best response ([6]; Patient No. 04-011, Stage IIIB NSCLC): stable disease
IC50 ([1]; G361 melanoma cells, MTT, 72 hours post-treatment): 41 µM

IC50 ([3]; Homo sapiens, NCI-H1975, 72 hours post-treatment): 0.005 µM
IC50 ([5]; Homo sapiens): 9.92 µM
IC50 Ratio (A549/H1975) [5]: 1984
Structure (SMILES): CC(=O)O[C@H]1C(=O)[C@@]2(C)[C@H]([C@H](OC(=O)c3ccccc3)[C@]3(O)C[C@H](OC(=O)[C@H](O)[C@@H](NC(=O)c4ccccc4)c4ccccc4)C(C)=C1C3(C)C)[C@]1(OC(C)=O)CO[C@@H]1C[C@@H]2O [Paclitaxel, paclitaxel]
